The source of these data is patent publication US6555702B2, “Protein kinase inhibitor” (Calyx Therapeutics, Inc., priority 1997, dated 2003).

Data set [1] is described as follows: Solubility (Table A). Conditions: solvents in which the compound is soluble. Format: physicochemical.
Data set [2] relates to NOD mice. The data set can be described thus: Hypoglycemic effect in non-obese diabetic (NOD) mice. Type of data set: in vivo, mouse. Conditions: daily oral administration, treatment mode, vs vehicle; FIG. 5. As for the experimental part: The hypoglycemic effect of Compound 2 (water-soluble analog of A1) was evaluated in the treatment mode in non-obese diabetic (NOD) mice.

Data set [3] has as its system IL 12 secretion by splenic macrophages. Briefly: IL 12 secretion by LPS-stimulated splenic macrophages. Format: cell-based. As to conditions: mouse splenic macrophages, 5 ug/ml LPS, varying doses, 72 hr; FIG. 1A. As for the experimental part:
The effects of these three tyrphostins on the secretion of pro-inflammatory cytokines from macrophages were compared. Mouse splenic macrophages were stimulated with 5 ugh/ml lipopolysaccharide (LPS) and treated with varying doses of tyrphostins. The cells were cultured for 72 hr and the amount of IL 12 and nitric oxide was measured. […] Similar results were obtained with respect to nitric oxide levels, with tyrphostin A1 (FIG. 1B) showing good results.

In data set [4] the test system is mitogen stimulated splenic T cells. Briefly: T cell proliferation induced by IL 2. Type of data set: cell-based, mouse. As to conditions: stimulated with 1 U/ml IL 2.
Data set [5] has the same test system. Briefly: T cell proliferation induced by IL 12. Type of data set: cell-based, mouse. As to conditions: stimulated with 10 U/ml IL 12.
The test system of data set [6] is septic shock. Conditions: background statement; cited from earlier work.
Data set [7] deals with leukemic cells. Conditions: acute lymphoblastic leukemia; background statement; cited from earlier work.

“Also recorded” adds a separate entry of the source.

Take `N#CC(C#N)=Cc1ccc(C(=O)[O-])cc1.[Na+]` [Compound 2, Sodium 1-cyano-3-(4-carboxy-phenyl)-acrylonitrile]: the SOLUBILITY result in data set [1] is given as “Water”. The “effect on blood glucose level” value in data set [2] is recorded as “significant effect on blood glucose level; also recorded: lowering blood glucose level”.
Consider `N#CC(C#N)=Cc1ccc(OCC(=O)[O-])cc1.[Na+]` [Compound 5], for which the SOLUBILITY entry in data set [1] is “Water”.
As for `CCOC(=O)COc1ccc(C=C(C#N)C#N)cc1` [Compound 6], the SOLUBILITY result in data set [1] is recorded as “Chloroform Ethanol (warm)”.
`N#CC(C#N)=Cc1ccc(O)cc1` [Compound 7]: in data set [1], the SOLUBILITY entry is “Ethanol Acetone”.
`N#CC(C#N)=Cc1ccc([N+](=O)[O-])c(O)c1` [Tyrphostin A10]: in data set [3], the “inhibition of IL 12 secretion” value is given as “inhibited IL 12 production”. The “inhibition of T cell proliferation” value in data set [4] and in data set [5] was “did not show any significant inhibition” in each case. Further, the “protection in septic shock” value in data set [6] is “protective in septic shock”.
On to `N#C/C(=C\c1ccc(O)c(O)c1)C(=O)NCc1ccccc1` [Tyrphostin B42], for which the “inhibition of IL 12 secretion” value in data set [3] was “inhibited IL 12 production”. Also, the “inhibition of T cell proliferation” value in data set [4] and in data set [5] was “inhibited T cell proliferation” throughout. The “prevention of growth of leukemic cells” value in data set [7] is “effective in preventing the growth of leukemic cells”.
